# Test results reported in publication PMC5789826, “Structure-guided design of an Hsp90β N-terminal isoform-selective inhibitor” (Nature Communications, 2018).
# Several values for one entry are separate records, joined by “and”; a condition that tells them apart may be missing. Equal entries are not always repeated. Where two headings read alike, the source gives them in different places.
# Key:
# Hsp90β = Hsp90β (Homo sapiens, UniProt P08238); test: Fluorescence polarization assay (FITC-GDA tracer displacement), Hsp90β; assay type: binding; conditions: for % Polarization to DMSO control: triplicate wells; for selectivity for Hsp90β: Hsp90β versus Hsp90α, from Kd values
# Sequence of Hsp90β (P08238 whole entry): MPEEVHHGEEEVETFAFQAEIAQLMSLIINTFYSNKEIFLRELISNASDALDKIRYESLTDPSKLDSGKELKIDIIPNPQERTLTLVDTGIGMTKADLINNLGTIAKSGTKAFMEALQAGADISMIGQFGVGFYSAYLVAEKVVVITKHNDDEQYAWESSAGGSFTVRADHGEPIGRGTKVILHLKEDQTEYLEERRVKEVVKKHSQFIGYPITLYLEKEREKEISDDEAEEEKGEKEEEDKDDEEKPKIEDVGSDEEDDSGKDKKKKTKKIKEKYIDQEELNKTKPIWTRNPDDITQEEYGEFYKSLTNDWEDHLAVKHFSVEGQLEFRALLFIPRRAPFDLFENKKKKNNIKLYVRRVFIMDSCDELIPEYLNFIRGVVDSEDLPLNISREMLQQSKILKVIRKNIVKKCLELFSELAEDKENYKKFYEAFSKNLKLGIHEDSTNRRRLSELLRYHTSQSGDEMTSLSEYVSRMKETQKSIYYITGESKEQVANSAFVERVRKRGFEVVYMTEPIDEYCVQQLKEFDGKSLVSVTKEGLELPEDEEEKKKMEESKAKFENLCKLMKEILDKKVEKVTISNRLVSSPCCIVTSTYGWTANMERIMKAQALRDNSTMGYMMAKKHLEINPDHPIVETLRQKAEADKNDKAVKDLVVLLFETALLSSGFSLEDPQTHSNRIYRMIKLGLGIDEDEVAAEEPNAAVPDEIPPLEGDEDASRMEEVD
# Protocol: (§1) Compounds were tested in triplicate wells (1% DMSO final concentration). For each plate, wells containing buffer only (background), tracer in buffer only (low polarization control), and protein and tracer in buffer with 1% DMSO (high polarization control) were included. Plates were incubated at 4 °C with rocking for 24 h. […] Polarization values were correlated to % tracer bound and compound concentrations. The concentration at which the tracer was 50% displaced by the inhibitor was determined using Graphpad Prism.
# Hsp90α = Hsp90α (Homo sapiens, UniProt P07900); test: Fluorescence polarization assay (FITC-GDA tracer displacement), Hsp90α; assay type: binding; conditions: for % Polarization to DMSO control: triplicate wells
# Protocol: as §1
# [1] = fluorescence polarization, apparent Kd, read-out: Kd Hsp90α
# [2] = fluorescence polarization, apparent Kd, read-out: Kd Hsp90β
smiles,measurement,setting,value
CC(C)c1cc(C(=O)N2Cc3ccccc3C2)c(O)c(CO)c1O [Compound 5],Kd,"Hsp90β; Kd Hsp90β, fluorescence polarization, apparent Kd",4270 nM
same,% Polarization to DMSO control,"Hsp90β; Suppl Table 5, 5 1 μM",73.89% and 76.47% and 73.55%
same,% Polarization to DMSO control,"Hsp90β; Suppl Table 5, 5 5 μM",48.11% and 44.50% and 46.91%
same,% Polarization to DMSO control,"Hsp90β; Suppl Table 5, 5 10 μM",27.82% and 30.40% and 31.26%
same,% Polarization to DMSO control,"Hsp90β; Suppl Table 5, 5 25 μM",13.21% and 21.12% and 17.17%
same,% Polarization to DMSO control,"Hsp90β; Suppl Table 5, 5 50 μM",21.98% and 21.29%
CC(C)c1ccc(O)c(C(=O)N2Cc3ccccc3C2)c1 [Compound 1],% Polarization to DMSO control,"Hsp90α; Suppl Table 10, 1 0.5 μM",84.59% and 83.37% and 82.16%
same,% Polarization to DMSO control,"Hsp90α; Suppl Table 10, 1 1 μM",70.63% and 71.84% and 71.69%
same,% Polarization to DMSO control,"Hsp90α; Suppl Table 10, 1 5 μM",31.78% and 33.90% and 37.85%
same,% Polarization to DMSO control,"Hsp90α; Suppl Table 10, 1 10 μM",22.83% and 17.67% and 25.25%
same,% Polarization to DMSO control,"Hsp90α; Suppl Table 10, 1 25 μM",16.45% and 15.39% and 18.58%
same,% Polarization to DMSO control,"Hsp90α; Suppl Table 10, 1 50 μM",11.45% and 12.05% and 8.56%
same,% Polarization to DMSO control,"Hsp90α; Suppl Table 10, 1 100 μM",9.47% and 8.26%
same,Kd,Hsp90α; [1],3210 nM
same,selectivity for Hsp90β,Hsp90β,~ 2 fold
same,% Polarization to DMSO control,"Hsp90β; Suppl Table 11, 1 0.5 μM",68.22% and 73.53% and 68.55%
same,% Polarization to DMSO control,"Hsp90β; Suppl Table 11, 1 1 μM",60.93% and 62.75% and 64.41%
same,% Polarization to DMSO control,"Hsp90β; Suppl Table 11, 1 5 μM",23.80% and 23.30% and 19.99%
same,% Polarization to DMSO control,"Hsp90β; Suppl Table 11, 1 10 μM",15.34% and 18.00% and 10.37%
same,% Polarization to DMSO control,"Hsp90β; Suppl Table 11, 1 25 μM",12.53% and 4.40% and 5.73%
same,% Polarization to DMSO control,"Hsp90β; Suppl Table 11, 1 50 μM",5.73% and 5.90% and 4.40%
same,% Polarization to DMSO control,"Hsp90β; Suppl Table 11, 1 100 μM",8.22% and 4.90% and 9.38%
same,Kd,Hsp90β; [2],1630 nM
COCc1cc(O)c(C(=O)N2Cc3ccccc3C2)cc1C(C)C [Compound 3],Kd,Hsp90α,> 25000 nM
same,binding to Hsp90α,Hsp90α; at 10 μM,did not bind
same,Kd,Hsp90β,> 25000 nM
same,binding to Hsp90β,Hsp90β; at 10 μM,did not bind
CC(C)c1cc(C(=O)N2Cc3ccccc3C2)c(O)cc1CC#N [Compound 2],Kd,Hsp90α,2280 ± 120 nM
same,% Polarization to DMSO control,"Hsp90α; Suppl Table 9, 2 0.1 μM",95.62% and 98.23% and 93.53%
same,% Polarization to DMSO control,"Hsp90α; Suppl Table 9, 2 0.5 μM",78.89% and 78.37% and 75.58%
same,% Polarization to DMSO control,"Hsp90α; Suppl Table 9, 2 1 μM",66.18% and 68.79% and 67.22%
same,% Polarization to DMSO control,"Hsp90α; Suppl Table 9, 2 5 μM",22.97% and 29.94%
same,Kd,Hsp90β,970 nM
same,selectivity for Hsp90β,Hsp90β,~ 2.5 fold
same,% Polarization to DMSO control,"Hsp90β; Suppl Table 8, 2 0.1 μM",90.36% and 90.17% and 91.52%
same,% Polarization to DMSO control,"Hsp90β; Suppl Table 8, 2 0.5 μM",65.62% and 68.90% and 70.45%
same,% Polarization to DMSO control,"Hsp90β; Suppl Table 8, 2 1 μM",47.25% and 50.54% and 49.96%
same,% Polarization to DMSO control,"Hsp90β; Suppl Table 8, 2 5 μM",12.84% and 16.90% and 23.47%
same,% Polarization to DMSO control,"Hsp90β; Suppl Table 8, 2 10 μM",4.14% and 8.59% and 10.52%
CC(C)c1cc(C(=O)N2Cc3ccc(F)cc3C2)c(O)c2cnoc12 [Compound 6b],% Polarization to DMSO control,"Hsp90α; Suppl Table 12, 6b 0.125 μM",101. 64% and 98.69% and 98.03%
same,% Polarization to DMSO control,"Hsp90α; Suppl Table 12, 6b 0.5 μM",97.54% and 93.76% and 98.36%
same,% Polarization to DMSO control,"Hsp90α; Suppl Table 12, 6b 1 μM",98.19% and 97.05% and 96.39%
same,% Polarization to DMSO control,"Hsp90α; Suppl Table 12, 6b 3 μM",87.85% and 82.27% and 73.25%
same,% Polarization to DMSO control,"Hsp90α; Suppl Table 12, 6b 10 μM",66.68% and 53.88% and 63.89%
same,% Polarization to DMSO control,"Hsp90α; Suppl Table 12, 6b 25 μM",41.57% and 41.90% and 42.23%
same,% Polarization to DMSO control,"Hsp90α; Suppl Table 12, 6b 75 μM",20.07% and 24.50% and 20.73%
same,Kd,Hsp90α; [1],18200 nM
same,selectivity over Hsp90α and Grp94,Hsp90β; Hsp90β versus Hsp90α and Grp94,~ 50 fold
same,% Polarization to DMSO control,"Hsp90β; Suppl Table 13, 6b 0.125 μM",80.92% and 79.55% and 79.72%
same,% Polarization to DMSO control,"Hsp90β; Suppl Table 13, 6b 0.5 μM",44.66% and 45.17%
same,% Polarization to DMSO control,"Hsp90β; Suppl Table 13, 6b 1 μM",27.05% and 23.28% and 31.32%
same,Kd,"Hsp90β; fluorescence polarization, apparent Kd, value in nM, read-out: Kd Hsp90β",180 nM
same,Kd,Hsp90β; [2],440 nM
CC(C)c1cc(C(=O)N2Cc3ccccc3C2)c(O)cc1C=O [Compound 4],Kd,Hsp90α; Kd Hsp90α,1550 nM and 1220 nM
